Data published in article PMC6540285, “Evaluation of Protein Kinase Inhibitors with PLK4 Cross-Over Potential in a Pre-Clinical Model of Cancer” (International Journal of Molecular Sciences, 2019).

Key:
RT and MB cells [1] = assay: Beta-galactosidase senescence assay; assay type: cell-based; settings: all cell lines
Experimental: Senescence was evaluated using the Beta-galactosidase assay (Senescence Cells Histochemical Staining Kit CS0030 (Sigma, St Louis, MO, USA) and clonogenic recovery assay as previously described.

RT and MB cells [2] = assay: Cell cycle analysis (PI flow cytometry); assay type: cell-based; settings: 2µM
Experimental: Cell cycle analysis was performed by flow cytometry of cells stained with Propidium Iodide (PI) (Thermo Fisher Scientific, Carlsbad, CA, USA) according to manufacturer’s instructions. Cells treated with the top PLK4i candidates and 0.1% DMSO (control) were fixed in 80% ethanol overnight, stained with PI, and then subjected to flow cytometric analysis using a BD Fortessa instrument (BD Biosciences, San Jose, CA, USA). Data was analyzed using Modfit LT from Verity Software House (Topsham, ME, USA). All experiments were performed in triplicate.

ABL1 Y253F = ABL1 Y253F (Homo sapiens, UniProt P00519, Y253F); assay: SelectScreen kinase profiling, ZLYTE; assay type: biochemical
ABL2 (Arg) = ABL2 (Arg) (Homo sapiens, UniProt P42684); assay: SelectScreen kinase profiling, ZLYTE; assay type: biochemical
ALK F1174L = ALK F1174L (Homo sapiens, UniProt Q9UM73, F1174L); assay: SelectScreen kinase profiling, LanthaScreen binding
BLK = BLK (Homo sapiens, UniProt P51451); assay: SelectScreen kinase profiling, ZLYTE; assay type: biochemical
BLK, sequence (P51451 whole entry): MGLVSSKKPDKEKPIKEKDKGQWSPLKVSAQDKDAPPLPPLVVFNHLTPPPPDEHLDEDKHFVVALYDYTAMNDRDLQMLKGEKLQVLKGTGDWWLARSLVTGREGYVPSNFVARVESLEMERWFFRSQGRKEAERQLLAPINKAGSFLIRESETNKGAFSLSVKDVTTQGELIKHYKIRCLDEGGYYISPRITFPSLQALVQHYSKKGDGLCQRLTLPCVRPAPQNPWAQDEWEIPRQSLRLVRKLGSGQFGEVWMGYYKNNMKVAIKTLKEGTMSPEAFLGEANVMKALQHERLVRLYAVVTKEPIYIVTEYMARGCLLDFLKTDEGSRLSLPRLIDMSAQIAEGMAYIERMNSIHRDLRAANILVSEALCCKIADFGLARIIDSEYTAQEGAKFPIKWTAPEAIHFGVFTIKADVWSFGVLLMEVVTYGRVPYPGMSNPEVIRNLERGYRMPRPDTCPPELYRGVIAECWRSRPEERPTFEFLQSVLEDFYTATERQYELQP

BRAF = BRAF (Homo sapiens, UniProt P15056); assay: SelectScreen kinase profiling, ZLYTE; assay type: biochemical
BRAF V599E = BRAF V599E (Homo sapiens, UniProt P15056, V600E); assay: SelectScreen kinase profiling, ZLYTE; assay type: biochemical
CAMK2B (CaMKII beta) = CAMK2B (CaMKII beta) (Homo sapiens, UniProt Q13554); assay: SelectScreen kinase profiling, ZLYTE; assay type: biochemical
CAMK2G (CaMKII gamma) = CAMK2G (CaMKII gamma) (Homo sapiens, UniProt Q13555); assay: SelectScreen kinase profiling, LanthaScreen binding
CAMK4 (CaMKIV) = CAMK4 (CaMKIV) (Homo sapiens, UniProt Q16566); assay: SelectScreen kinase profiling, ZLYTE; assay type: biochemical
CDK5/p35 = CDK5/p35 (Homo sapiens, UniProt Q00535); assay: SelectScreen kinase profiling, ZLYTE; assay type: biochemical; settings: CDK5/p35, 10 µM
CDK9/cyclin T1 = CDK9/cyclin T1 (Homo sapiens, UniProt P50750); assay: SelectScreen kinase profiling, Adapta; assay type: biochemical; settings: CDK9/cyclin T1, 10 µM
CSNK1A1 (CK1 alpha 1) = CSNK1A1 (CK1 alpha 1) (Homo sapiens, UniProt P48729); assay: SelectScreen kinase profiling, ZLYTE; assay type: biochemical
DAPK2 = DAPK2 (Homo sapiens, UniProt Q9UIK4); assay: SelectScreen kinase profiling, LanthaScreen binding; settings: DAPK2, 10 µM
ERBB2 (HER2) = ERBB2 (HER2) (Homo sapiens, UniProt P04626); assay: SelectScreen kinase profiling, ZLYTE; assay type: biochemical
FGFR3 K650E = FGFR3 K650E (Homo sapiens, UniProt P22607, K650E); assay: SelectScreen kinase profiling, ZLYTE; assay type: biochemical
GSK3A (GSK3 alpha) = GSK3A (GSK3 alpha) (Homo sapiens, UniProt P49840); assay: SelectScreen kinase profiling, ZLYTE; assay type: biochemical
GSK3A (GSK3 alpha), sequence (P49840 whole entry): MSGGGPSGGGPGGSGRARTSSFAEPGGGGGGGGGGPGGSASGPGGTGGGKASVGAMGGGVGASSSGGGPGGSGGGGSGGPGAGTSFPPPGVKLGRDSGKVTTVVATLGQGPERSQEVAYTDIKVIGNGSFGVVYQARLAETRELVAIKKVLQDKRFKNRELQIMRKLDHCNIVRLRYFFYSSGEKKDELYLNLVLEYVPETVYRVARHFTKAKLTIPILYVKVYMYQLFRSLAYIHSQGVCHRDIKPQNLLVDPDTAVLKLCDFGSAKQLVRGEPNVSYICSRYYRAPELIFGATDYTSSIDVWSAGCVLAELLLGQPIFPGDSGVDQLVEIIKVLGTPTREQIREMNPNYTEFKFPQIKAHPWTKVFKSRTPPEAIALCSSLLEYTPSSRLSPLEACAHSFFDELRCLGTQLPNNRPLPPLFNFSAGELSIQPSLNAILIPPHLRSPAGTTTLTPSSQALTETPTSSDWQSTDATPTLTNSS

JAK2 JH1 JH2 = biological target: T1, JAK2 JH1 JH2 (Homo sapiens, UniProt O60674); assay: SelectScreen kinase profiling, ZLYTE; assay type: biochemical; settings: JAK2 JH1 JH2, 10 µM
T1 construct: JAK2 JH1 JH2

KIT Y823D = KIT Y823D (Homo sapiens, UniProt P10721, Y823D); assay: SelectScreen kinase profiling, LanthaScreen binding
LRRK2 R1441C = LRRK2 R1441C (Homo sapiens, UniProt Q5S007, R1441C); assay: SelectScreen kinase profiling, Adapta; assay type: biochemical
LRRK2 R1441C, sequence (Q5S007 whole entry R1441C): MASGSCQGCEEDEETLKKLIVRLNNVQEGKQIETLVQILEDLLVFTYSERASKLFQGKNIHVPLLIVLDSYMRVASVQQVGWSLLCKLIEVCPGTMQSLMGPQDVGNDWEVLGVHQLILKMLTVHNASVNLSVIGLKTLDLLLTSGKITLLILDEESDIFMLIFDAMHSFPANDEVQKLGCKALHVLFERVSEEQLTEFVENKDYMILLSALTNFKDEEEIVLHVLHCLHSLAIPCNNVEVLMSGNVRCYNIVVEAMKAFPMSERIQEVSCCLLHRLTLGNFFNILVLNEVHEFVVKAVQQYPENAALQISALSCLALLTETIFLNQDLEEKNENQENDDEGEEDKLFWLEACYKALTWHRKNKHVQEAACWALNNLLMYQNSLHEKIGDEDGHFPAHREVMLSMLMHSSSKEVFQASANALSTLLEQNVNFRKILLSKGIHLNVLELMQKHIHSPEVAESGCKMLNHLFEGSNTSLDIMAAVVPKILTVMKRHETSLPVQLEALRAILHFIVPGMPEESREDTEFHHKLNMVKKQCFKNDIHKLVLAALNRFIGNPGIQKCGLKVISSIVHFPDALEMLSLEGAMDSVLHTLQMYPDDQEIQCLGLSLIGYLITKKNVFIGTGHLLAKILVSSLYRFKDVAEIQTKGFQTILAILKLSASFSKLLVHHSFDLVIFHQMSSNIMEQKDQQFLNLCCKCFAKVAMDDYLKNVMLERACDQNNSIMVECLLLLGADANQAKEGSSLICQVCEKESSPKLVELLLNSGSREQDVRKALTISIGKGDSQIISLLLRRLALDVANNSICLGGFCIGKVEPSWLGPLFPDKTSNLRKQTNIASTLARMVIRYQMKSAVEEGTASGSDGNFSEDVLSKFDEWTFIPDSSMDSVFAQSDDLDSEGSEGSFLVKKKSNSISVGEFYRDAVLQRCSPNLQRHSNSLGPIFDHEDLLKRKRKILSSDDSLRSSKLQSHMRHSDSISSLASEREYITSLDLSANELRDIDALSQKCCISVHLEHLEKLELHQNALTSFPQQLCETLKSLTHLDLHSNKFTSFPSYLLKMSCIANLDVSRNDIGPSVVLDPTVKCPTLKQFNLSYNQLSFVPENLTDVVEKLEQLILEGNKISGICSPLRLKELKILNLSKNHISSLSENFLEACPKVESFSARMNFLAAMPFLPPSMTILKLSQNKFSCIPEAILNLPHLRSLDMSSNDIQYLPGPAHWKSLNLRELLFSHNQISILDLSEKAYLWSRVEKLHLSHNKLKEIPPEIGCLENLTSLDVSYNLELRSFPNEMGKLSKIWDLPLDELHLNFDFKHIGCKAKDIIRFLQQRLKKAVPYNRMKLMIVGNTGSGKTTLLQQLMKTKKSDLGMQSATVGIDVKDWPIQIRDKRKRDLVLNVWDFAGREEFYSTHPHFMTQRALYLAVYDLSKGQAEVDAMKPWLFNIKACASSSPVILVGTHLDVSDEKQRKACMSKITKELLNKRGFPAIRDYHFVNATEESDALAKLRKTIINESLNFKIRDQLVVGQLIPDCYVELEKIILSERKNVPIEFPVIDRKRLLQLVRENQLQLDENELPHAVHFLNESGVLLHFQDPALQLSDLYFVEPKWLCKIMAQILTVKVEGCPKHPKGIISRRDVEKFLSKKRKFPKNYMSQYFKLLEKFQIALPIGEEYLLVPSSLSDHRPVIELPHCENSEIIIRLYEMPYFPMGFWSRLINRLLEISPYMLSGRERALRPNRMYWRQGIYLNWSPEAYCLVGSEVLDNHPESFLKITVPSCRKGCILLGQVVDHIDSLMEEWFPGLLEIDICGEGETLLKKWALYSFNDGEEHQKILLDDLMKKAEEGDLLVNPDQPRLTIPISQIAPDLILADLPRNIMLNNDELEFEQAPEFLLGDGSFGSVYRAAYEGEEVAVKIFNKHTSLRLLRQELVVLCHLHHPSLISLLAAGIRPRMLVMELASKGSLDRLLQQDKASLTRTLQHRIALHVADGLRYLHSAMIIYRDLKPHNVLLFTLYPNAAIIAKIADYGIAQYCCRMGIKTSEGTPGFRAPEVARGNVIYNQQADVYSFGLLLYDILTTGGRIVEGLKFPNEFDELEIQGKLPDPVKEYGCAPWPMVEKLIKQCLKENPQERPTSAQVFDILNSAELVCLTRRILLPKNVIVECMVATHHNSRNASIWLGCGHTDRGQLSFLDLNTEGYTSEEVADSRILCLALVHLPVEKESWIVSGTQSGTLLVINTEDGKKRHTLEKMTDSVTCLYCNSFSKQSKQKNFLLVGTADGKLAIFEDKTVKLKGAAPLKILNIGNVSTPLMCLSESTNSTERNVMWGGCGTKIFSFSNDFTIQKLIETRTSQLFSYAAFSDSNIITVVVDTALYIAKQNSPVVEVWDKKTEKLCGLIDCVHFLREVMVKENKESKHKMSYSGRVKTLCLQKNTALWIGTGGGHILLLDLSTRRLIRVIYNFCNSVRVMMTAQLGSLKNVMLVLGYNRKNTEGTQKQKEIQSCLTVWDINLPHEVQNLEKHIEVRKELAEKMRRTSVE

MAP3K14 (NIK) = MAP3K14 (NIK) (Homo sapiens, UniProt Q99558); assay: SelectScreen kinase profiling, LanthaScreen binding
MAP3K3 (MEKK3) = MAP3K3 (MEKK3) (Homo sapiens, UniProt Q99759); assay: as above
NEK7 = NEK7 (Homo sapiens, UniProt Q8TDX7); assay: SelectScreen kinase profiling, ZLYTE; assay type: biochemical; settings: NEK7, 10 µM
NEK7, sequence (Q8TDX7 whole entry): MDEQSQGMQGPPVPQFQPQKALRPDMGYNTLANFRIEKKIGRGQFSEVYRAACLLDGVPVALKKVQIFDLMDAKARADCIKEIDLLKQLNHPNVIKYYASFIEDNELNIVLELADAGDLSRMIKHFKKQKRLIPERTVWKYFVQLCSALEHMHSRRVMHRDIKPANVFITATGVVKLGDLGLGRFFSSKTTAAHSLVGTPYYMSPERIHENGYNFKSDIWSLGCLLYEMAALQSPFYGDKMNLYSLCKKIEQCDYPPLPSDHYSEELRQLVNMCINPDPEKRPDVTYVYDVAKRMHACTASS

PI4KA (PI4K alpha) = PI4KA (PI4K alpha) (Homo sapiens, UniProt P42356); assay: SelectScreen kinase profiling, Adapta; assay type: biochemical
[3] = biological target: PIK3CA/PIK3R3 (p110 alpha/p55 gamma) (Homo sapiens, UniProt P42336); assay: SelectScreen kinase profiling, Adapta; assay type: biochemical; settings: PIK3CA/PIK3R3, 10 µM
PRKACB (PRKAC beta) = PRKACB (PRKAC beta) (Homo sapiens, UniProt P22694); assay: SelectScreen kinase profiling, LanthaScreen binding
PRKX = PRKX (Homo sapiens, UniProt P51817); assay: SelectScreen kinase profiling, ZLYTE; assay type: biochemical
RET A883F = RET A883F (Homo sapiens, UniProt P07949, A883F); assay: SelectScreen kinase profiling, ZLYTE; assay type: biochemical
RET A883F, sequence (P07949 29-1114 A883F): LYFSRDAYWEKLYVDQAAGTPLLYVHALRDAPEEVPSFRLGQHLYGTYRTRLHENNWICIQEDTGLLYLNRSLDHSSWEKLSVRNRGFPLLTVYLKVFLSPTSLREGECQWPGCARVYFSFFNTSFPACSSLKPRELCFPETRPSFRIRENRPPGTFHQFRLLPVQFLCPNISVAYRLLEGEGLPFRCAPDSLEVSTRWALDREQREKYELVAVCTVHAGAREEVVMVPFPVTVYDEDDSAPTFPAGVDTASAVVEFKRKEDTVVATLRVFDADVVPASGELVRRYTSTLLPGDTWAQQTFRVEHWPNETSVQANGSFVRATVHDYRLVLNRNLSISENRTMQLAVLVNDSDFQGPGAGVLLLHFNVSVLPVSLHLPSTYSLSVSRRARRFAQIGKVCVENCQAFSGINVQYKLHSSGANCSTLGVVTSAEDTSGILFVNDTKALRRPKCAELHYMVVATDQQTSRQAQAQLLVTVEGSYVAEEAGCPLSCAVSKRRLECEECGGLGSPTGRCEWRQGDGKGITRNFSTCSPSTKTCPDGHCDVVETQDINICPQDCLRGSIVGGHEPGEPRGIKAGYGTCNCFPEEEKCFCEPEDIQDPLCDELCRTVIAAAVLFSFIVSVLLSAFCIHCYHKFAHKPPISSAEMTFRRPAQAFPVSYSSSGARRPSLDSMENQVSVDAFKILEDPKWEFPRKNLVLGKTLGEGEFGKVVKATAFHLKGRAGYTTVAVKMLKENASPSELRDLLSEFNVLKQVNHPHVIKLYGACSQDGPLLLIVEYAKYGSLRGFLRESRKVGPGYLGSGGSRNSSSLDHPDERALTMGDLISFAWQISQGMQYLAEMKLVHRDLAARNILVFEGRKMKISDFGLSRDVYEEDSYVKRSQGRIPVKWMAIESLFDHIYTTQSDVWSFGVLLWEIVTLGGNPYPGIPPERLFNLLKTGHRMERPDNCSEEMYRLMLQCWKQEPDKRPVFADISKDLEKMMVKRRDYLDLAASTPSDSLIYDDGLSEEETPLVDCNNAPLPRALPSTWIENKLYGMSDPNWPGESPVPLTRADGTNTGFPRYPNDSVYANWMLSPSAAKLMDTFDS

RET M918T = RET M918T (Homo sapiens, UniProt P07949, M918T); assay: SelectScreen kinase profiling, LanthaScreen binding
RET M918T, sequence (P07949 29-1114 M918T): as the sequence (P07949 29-1114 A883F) above, with F855A, M890T counted along it

RPS6KB2 (p70S6Kb) = RPS6KB2 (p70S6Kb) (Homo sapiens, UniProt Q9UBS0); assay: SelectScreen kinase profiling, ZLYTE; assay type: biochemical
SIK1 = SIK1 (Homo sapiens, UniProt P57059); assay: SelectScreen kinase profiling, LanthaScreen binding; settings: SIK1, 10 µM
STK17B (DRAK2) = STK17B (DRAK2) (Homo sapiens, UniProt O94768); assay: as above
STK32B (YANK2) = STK32B (YANK2) (Homo sapiens, UniProt Q9NY57); assay: as above
TESK1 = TESK1 (Homo sapiens, UniProt Q15569); assay: as above; settings: TESK1, 10 µM
Source text: Kinase Technology % Inhibition Avg Kinase Technology % Inhibition Avg […]
TESK1 LanthaScreen 37 ZAP70 ZLYTE 24
cleavage (Thermo Fisher Scientific, USA)

In the case of `O=C(c1ccc(/C=C/c2n[nH]c3ccccc23)cc1)N1CCNCC1` [KW-2449], the “cell senescence (beta-galactosidase)” value (RT and MB cells [1]) is reported as “dose-dependent induction of cell senescence”, the “polyploidy (cell cycle analysis)” value (RT and MB cells [2]) is reported as “induction of polyploidy with 2µM KW-2449 in all cell lines except DAOY” and the inhibition at 10 µM (ABL1 Y253F) is reported as 100%. For the same molecule, the inhibition at 10 µM (ABL2 (Arg)) was 98%, the inhibition at 10 µM (ALK F1174L) was 56% and the inhibition at 10 µM (BLK) was 89%. For the same molecule, the inhibition at 10 µM (BRAF) was 67%, the inhibition at 10 µM (BRAF V599E) was 60% and the inhibition at 10 µM (CAMK2B (CaMKII beta)) was 32%. For the same molecule, the inhibition at 10 µM (CAMK2G (CaMKII gamma)) was -110%, the inhibition at 10 µM (CAMK4 (CaMKIV)) was 52% and the inhibition at 10 µM (CDK5/p35) was 94%. It also gave an inhibition at 10 µM (CDK9/cyclin T1) of 82%, an inhibition at 10 µM (CSNK1A1 (CK1 alpha 1)) of 33% and an inhibition at 10 µM (DAPK2) of 64%. The inhibition at 10 µM (ERBB2 (HER2)) was 4%, the inhibition at 10 µM (FGFR3 K650E) was 97% and the inhibition at 10 µM (GSK3A (GSK3 alpha)) was 63%. It also gave an inhibition at 10 µM (JAK2 JH1 JH2) of 96%, an inhibition at 10 µM (KIT Y823D) of 61% and an inhibition at 10 µM (LRRK2 R1441C) of 100%. For the same molecule, the inhibition at 10 µM (MAP3K14 (NIK)) was 90%, the inhibition at 10 µM (MAP3K3 (MEKK3)) was 82% and the inhibition at 10 µM (NEK7) was 7%. For the same molecule, the inhibition at 10 µM (PI4KA (PI4K alpha)) was 7%, the inhibition at 10 µM [3] was 4% and the inhibition at 10 µM (PRKACB (PRKAC beta)) was 48%. The inhibition at 10 µM (PRKX) was 96%, the inhibition at 10 µM (RET A883F) was 99% and the inhibition at 10 µM (RET M918T) was -40%. It also gave an inhibition at 10 µM (RPS6KB2 (p70S6Kb)) of 37%, an inhibition at 10 µM (SIK1) of 82% and an inhibition at 10 µM (STK17B (DRAK2)) of 58%. The inhibition at 10 µM (STK32B (YANK2)) was 61% and the inhibition at 10 µM (TESK1) was 37%.
